Results reported in US10350177B2, “Antibacterial S-heterosubstituted disulfides” (priority 2007, dated 2019).
Converted amounts (≈) assume the structure as drawn.

Legend:
Type in all cases: cell-based
[1] = test system: Live Vaccine Strain of Francisella tularensis; experiment: microbe, parasite or virus in culture
[2] = test system: Staphylococcus aureus (ATCC-849); experiment: MIC by agar dilution against Staphylococcus aureus; settings: for MIC: ATCC849
[3] = test system: Methicillin Resistant Staphylococcus aureus (ATCC-919); experiment: MIC by agar dilution against methicillin-resistant Staphylococcus aureus; settings: for MIC: ATCC 919 / MRSA

Row | Compound | MIC [1] [µg/mL] | MIC [2] [µg/mL] | MIC [3] [µg/mL] | MIC S.A. [2] [µg/mL] | MIC MRSA [3] [µg/mL]
1 | O=C(O)c1cn(C2CC2)c2cc(N3CCNCC3)c(F)cc2c1=O [Ciprofloxacin, reference compound] | 16 (≈ 48.3 µM) |  |  |  | 
2 | CCN(CC)SSN(CC)CC [XVII] | 16 (≈ 76.8 µM) | 2 (≈ 9.6 µM) | 2 (≈ 9.6 µM) |  | 
3 | CCN(SSN(C(C)C)C(C)C)C(C)C [XVIII] | 32 (≈ 128 µM) | 2 (≈ 7.98 µM) | 1 (≈ 3.99 µM) |  | 
4 | C=CCN(CC=C)SSN(CC=C)CC=C [XIX] | 16 (≈ 62.4 µM) | 1 (≈ 3.9 µM) | 0.5 (≈ 1.95 µM) |  | 
5 | CCC(C)SSSSC(C)CC (stereo not drawn) [XIV] | 16 (≈ 66 µM) | 32 (≈ 132 µM) | 64 (≈ 264 µM) |  | 
6 | c1ccc(SSSSc2ccccc2)cc1 [XV] | 2 (≈ 7.08 µM) | 8 (≈ 28.3 µM) | 8 (≈ 28.3 µM) |  | 
7 | CCC(C)OSSOC(C)CC (stereo not drawn) [IV] | 16 (≈ 76.1 µM) | 16 (≈ 76.1 µM) | 8 (≈ 38 µM) |  | 
8 | CC(C)NSSNC(C)C [VII] | 2 (≈ 11.1 µM) | 32 (≈ 177 µM) | 32 (≈ 177 µM) |  | 
9 | c1ccc(OSSOc2ccccc2)cc1 [V] | 1 (≈ 3.99 µM) | 2 (≈ 7.99 µM) | 2 (≈ 7.99 µM) |  | 
10 | CC(C)CN(CC(C)C)SSN(CC(C)C)CC(C)C [XX] | 1 (≈ 3.12 µM) | 16 (≈ 49.9 µM) | 16 (≈ 49.9 µM) |  | 
11 | CC1(C)S[C@@H]2[C@H](NC(=O)Cc3ccccc3)C(=O)N2[C@H]1C(=O)O [Penicillin G, reference compound] |  |  |  | 0.125 (≈ 0.374 µM) | 16 (≈ 47.8 µM)
12 | CCCCNSSNCCCC [VIII] | 4 (≈ 19.2 µM) | 8 (≈ 38.4 µM) | 32 (≈ 154 µM) |  | 
13 | CCCCSSSSCCCC [XIII] | 4 (≈ 16.5 µM) | 64 (≈ 264 µM) | 32 (≈ 132 µM) |  | 
14 | CC(C)SSSSC(C)C [XII] | 8 (≈ 37.3 µM) | 32 (≈ 149 µM) | 32 (≈ 149 µM) |  | 
15 | c1ccc(NSSNc2ccccc2)cc1 [X] | 0.5 (≈ 2.01 µM) | 4 (≈ 16.1 µM) | 4 (≈ 16.1 µM) |  | 
16 | CCCNSSNCCC [VI] | 16 (≈ 88.7 µM) | 8 (≈ 44.4 µM) | 4 (≈ 22.2 µM) |  | 
17 | CCCSSSSCCC [XI] | 1 (≈ 4.66 µM) | 32 (≈ 149 µM) | 32 (≈ 149 µM) |  | 
18 | CCCCOSSOCCCC [III] | 4 (≈ 19 µM) | 0.25 (≈ 1.19 µM) | 8 (≈ 38 µM) |  | 
19 | CCC(C)NSSNC(C)CC (stereo not drawn) [IX] | 8 (≈ 38.4 µM) | 16 (≈ 76.8 µM) | 16 (≈ 76.8 µM) |  | 
20 | CC(C)OSSOC(C)C [II] | 4 (≈ 21.9 µM) | 1 (≈ 5.49 µM) | 0.5 (≈ 2.74 µM) |  | 
21 | CN(C)SSN(C)C [XVI] | 8 (≈ 52.5 µM) | 0.25 (≈ 1.64 µM) | 0.5 (≈ 3.28 µM) |  | 
22 | CCCOSSOCCC [I] | 16 (≈ 87.8 µM) | 32 (≈ 176 µM) | 32 (≈ 176 µM) |  | 
